Residues, ends and D or L forms follow the SMILES beside them. *: point of attachment. Cbz = O=C(OCc1ccccc1)*
How the values were obtained:
[1] = test system: TMK1 cells
[2] = test system: AGS and TMK1 cells; conditions: all LL-37 treatment groups
Experimental: Cell culture and viability assay—The human gastric adenocarcinoma cell line AGS was purchased from American Type Culture Collection (Manassas, Va., USA). The gastric adenocarcinoma cell TMK1 was obtained from Dr. Eiichi Tahara (University of Hiroshima, Hiroshima, Japan). AGS and TMK1 cells were maintained in RPMI 1640 (Invitrogen) containing 10% fetal bovine serum (Invitrogen), 100 U/mL penicillin G, 100 μg/mL streptomycin, and maintained at 37° C., 95% humidity, and 5% carbon dioxide. Cell viability was determined by lactate dehydrogenase release assay (Roche, Indianapolis, Ind., USA).

[3] = test system: AGS cells; conditions: LL-37 20 μg/ml, 24 h
[4] = test system: Smad1/5, Smad2/3, cyclin E2; test: Western blot of Smad/BMP signaling proteins in TMK1 cells; assay type: cell-based, human; conditions: MG-132, 4 h (1 μmol/L in FIG. 6)
[5] = test system: Smad6, Smad7, p21Waf1/Cip1, p15Ink4a, p27Kip1, BMP ligands; test: RT-PCR / real-time PCR mRNA expression in TMK1 cells; assay type: cell-based, human; conditions: MG-132, 4 h (1 μmol/L in FIG. 6)
[6] = test system: dextran sodium sulfate-induced ulcerative colitis; test: DSS-induced ulcerative colitis, oral bacteria given during 7 days of DSS; assay type: in vivo, Balb/c mice; conditions: 600 mg/kg orally once daily
Experimental: Male Balb/c mice 6-8 weeks old were used in the following experiments. They were allowed free access to standard laboratory chow and tap water. All animals were housed in an air-conditioned room with controlled temperature (22° C.±1° C.), humidity (65%-70%), and day/night cycle (12:12-hr light: dark). Mice were induced with acute colitis by giving 3% dextran sulfate sodium (DSS, molecular weight, 35-50 kDa) prepared in drinking water for 7 days (from Day 0 to Day 7). Normal control mice received tap water throughout the experiment. […] In a different group of transformed NZ3900, 0.25 ng/ml nisin was added and further incubated for 3 h. Bacteria were then harvested by centrifugation (5000 rpm, 15 min) and washed twice with sterilized PBS (pH 7.4) and resuspended in sterilized water to give 2×10^10 cfu/ml. Mice were given intragastrically (i.g.) with 0.5 ml (1×10^10 cfu) bacteria once daily at the beginning of the DSS feeding. Animals were sacrificed at the end of 7 days DSS drinking and bacteria feeding. Colonic myeloperoxidase (MPO) was measured as described previously (Guo X, et al. Gastroenterology 117, 884-892 (1999)). In brief, colon tissues were homogenized in an ice-cold […] PBS (pH 6.0) solution with 0.5% hexa-decyl-trimethyl-ammonium bromide. The homogenate was freeze-thawed three times, followed by repeated sonication for 60 seconds each and centrifugation for 20 minutes at 14,000 revolutions per minutes at 4° C. The activity of the supernatant was determined spectrophotometrically at 450 nm. The final value was expressed as enzyme units per mg of protein. Crypt loss is a histological finding in colitis. Therefore, histological analysis of mice administered with formulations per FIG. 16. The crypts were graded on a 4 grade scale as follows: Grade 0: intact crypt; Grade 1: loss of the basal ⅓ of the crypt; Grade 2: loss of the basal ⅔ of the crypt; Grade 3: loss of entire crypt with surface epithelium remaining intact; Grade 4: loss of both the entire crypt and surface epithelium.

SMILES: C=C1/C(=C\C=C2/CCC[C@]3(C)[C@@H]([C@H](C)CCCC(C)(C)O)CC[C@@H]23)C[C@@H](O)C[C@@H]1O [1α,25-dihydroxylvitamin D3]
- TMK1 cell proliferation on induction of endogenous LL-37 ([1]; 1 μmol/L VD3 for 24 h, read 48 h post-treatment): inhibited cell proliferation

SMILES: CC[C@H](C)[C@H](NC(=O)[C@H](CCCCN)NC(=O)[C@H](CCC(=O)O)NC(=O)[C@H](CCCCN)NC(=O)[C@H](CO)NC(=O)[C@H](CCCCN)NC(=O)[C@H](CCCNC(=N)N)NC(=O)[C@H](Cc1ccccc1)NC(=O)[C@H](Cc1ccccc1)NC(=O)[C@H](CC(=O)O)NC(=O)CNC(=O)[C@H](CC(C)C)NC(=O)[C@@H](N)CC(C)C)C(=O)NCC(=O)N[C@@H](CCCCN)C(=O)N[C@@H](CCC(=O)O)C(=O)N[C@@H](Cc1ccccc1)C(=O)N[C@@H](CCCCN)C(=O)N[C@@H](CCCNC(=N)N)C(=O)N[C@H](C(=O)N[C@H](C(=O)N[C@@H](CCC(N)=O)C(=O)N[C@@H](CCCNC(=N)N)C(=O)N[C@H](C(=O)N[C@@H](CCCCN)C(=O)N[C@@H](CC(=O)O)C(=O)N[C@@H](Cc1ccccc1)C(=O)N[C@@H](CC(C)C)C(=O)N[C@@H](CCCNC(=N)N)C(=O)N[C@@H](CC(N)=O)C(=O)N[C@@H](CC(C)C)C(=O)N[C@H](C(=O)N1CCC[C@H]1C(=O)N[C@@H](CCCNC(=N)N)C(=O)N[C@H](C(=O)N[C@@H](CCC(=O)O)C(=O)N[C@@H](CO)C(=O)O)[C@@H](C)O)C(C)C)[C@@H](C)CC)C(C)C)[C@@H](C)CC [LL-37]
- inhibition of TMK1 cell proliferation ([3H]thymidine incorporation) ([1]; LL-37 20 μg/ml, 24 h): about 60%
- cell viability (lactate dehydrogenase release) [2]: unaffected
- inhibition of AGS cell proliferation ([3H]thymidine incorporation) [3]: 10%

SMILES: CC(C)C[C@@H](C=O)NC(=O)[C@H](CC(C)C)NC(=O)[C@H](CC(C)C)NC(=O)OCc1ccccc1 [MG-132] (Cbz-Leu-Leu-Leu-aldehyde)
- Smad1/5 phosphorylation [4]: dose-dependently increased
- BMP4 mRNA expression [5]: dose-dependently increased

SMILES: O=C(O)c1cc(/N=N/c2ccc(S(=O)(=O)Nc3ccccn3)cc2)ccc1O [Sulfasalazine, sulfasalazine]
- MPO activity [6]: did not affect
- mucus level [6]: did not affect
- number of apoptotic cells in the colonic mucosa [6]: did not affect
- number of microorganisms in the colon [6]: did not affect

— patent publication US20100310514A1, “Anti-Inflammatory Bacteria” (priority 2009, published 2010)
